The record followed here is US20230099293A1, “OGA INHIBITOR COMPOUNDS” (priority 2019, published 2023).

Where only a bound is given, the exact number is not on record here.

The target of data set [1] is T1, recombinant human Meningioma Expressed Antigen 5 (MGEA5), also referred to as O-GlcNAcase (OGA) (Homo sapiens, UniProt O60502).
T1 construct: Full length OGA enzyme was purchased at OriGene (cat #TP322411); purchased OriGene TP322411
T1 sequence (O60502 1-916): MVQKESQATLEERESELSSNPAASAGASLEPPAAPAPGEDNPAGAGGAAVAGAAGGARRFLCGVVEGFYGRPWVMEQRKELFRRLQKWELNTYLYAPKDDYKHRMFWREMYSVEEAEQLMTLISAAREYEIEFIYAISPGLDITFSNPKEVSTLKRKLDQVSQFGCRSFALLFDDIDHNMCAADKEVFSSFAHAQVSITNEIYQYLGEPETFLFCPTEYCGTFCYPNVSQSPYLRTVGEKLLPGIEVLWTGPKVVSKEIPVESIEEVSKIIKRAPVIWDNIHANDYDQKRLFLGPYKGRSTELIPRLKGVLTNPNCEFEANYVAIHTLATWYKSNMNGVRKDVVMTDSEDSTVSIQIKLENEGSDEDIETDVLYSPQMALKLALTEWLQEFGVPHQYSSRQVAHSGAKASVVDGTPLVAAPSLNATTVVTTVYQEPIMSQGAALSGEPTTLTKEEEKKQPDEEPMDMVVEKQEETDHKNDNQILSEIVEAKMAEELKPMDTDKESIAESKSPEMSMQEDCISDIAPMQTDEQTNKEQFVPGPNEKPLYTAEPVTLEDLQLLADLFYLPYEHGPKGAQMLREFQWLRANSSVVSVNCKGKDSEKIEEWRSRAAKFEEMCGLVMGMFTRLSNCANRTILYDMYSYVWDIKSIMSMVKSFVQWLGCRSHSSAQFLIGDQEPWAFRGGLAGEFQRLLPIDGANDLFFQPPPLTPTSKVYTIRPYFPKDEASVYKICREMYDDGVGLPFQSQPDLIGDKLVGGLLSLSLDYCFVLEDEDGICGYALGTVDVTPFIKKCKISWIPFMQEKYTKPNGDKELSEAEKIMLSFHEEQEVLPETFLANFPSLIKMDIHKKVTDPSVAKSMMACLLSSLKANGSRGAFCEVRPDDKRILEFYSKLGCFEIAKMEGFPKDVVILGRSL
Kind of data set: OGA biochemical assay (inhibition of FM-GlcNAc hydrolysis, fluorescence). Conditions: for IC50: Enzymatic hOGA, pIC50, Table 5; for Emax: read-out: Enzymatic Emax (%). In a few lines:
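Full-length recombinant OGA at 2 nM with 100 uM FM-GlcNAc in 200 mM citrate/phosphate buffer, 0.005% Tween-20. IC50 and Hill coefficient from curve fit between no-inhibitor and saturating standard-inhibitor controls.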

A further data set has as its target T2, hOGA (Homo sapiens, UniProt O60502).
T2 construct: endogenous in cells; host or cells: HEK293 cells inducible for P301L mutant human Tau (isoform 2N4R)
T2 sequence (O60502 1-916): T1 sequence (O60502 1-916)
The data set is described as follows: OGA cellular assay (ICC detection of O-GlcNAcylated proteins in HEK293 cells inducible for P301L mutant human Tau). Format: cell-based. Set-up: Emax: dose or concentration left out as unconfirmed. Conditions: for Emax: HEK293, read-out: Cellular Emax (%); for EC50: Cellular hOGA. The method in brief: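 HEK293 cells inducible for P301L Tau (2N4R), seeded in low-glucose medium, treated with compound for 6 h at 0.2% DMSO. After PFA fixation, O-GlcNAcylated proteins stained with CTD110.6 and imaged (488 nm intensity, 9 fields/well); Hoechst nuclei count for toxicity. IC50 by non-linear regression, Thiamet-G 200 μM as maximum.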

[2] abbreviates: full length OGA 2 nM, FM-GlcNAc 100 uM, 6 h at room temperature.
[3] abbreviates: pEC50, Table 5, HEK293 P301L Tau cells, 6 hours incubation, O-GlcNAcylation readout.

In general, IC50 refers to the concentration that inhibits the measured activity by half. As usually defined, the Emax is the maximal effect, on the per cent scale that the assay sets. As usually defined, the melting point is the temperature of the solid-liquid transition. `Cc1cc(C(F)(F)F)cc(C)c1Nc1nccc2c1ncn2Cc1ccon1` [Compound 59, N-(2,6-dimethyl-4-(trifluoromethyl)phenyl)-1-(isoxazole-3-ylmethyl)-1H-imidazo[4,5-c]pyridine-4-amine] yielded a melting point of 154.7 °C. The IC50 in data set [1] (setting [2]) is 0.00912 µM. The Emax in data set [1] was 101%. Besides, the Emax at hOGA was found to be 72%.
As a reminder, the EC50 is the concentration needed to bring the measured effect to its halfway point. `Cc1cc(C(F)(F)F)cc(C)c1Nc1nccc2c1ncn2CC(=O)N(C)C1CC1` [Compound 52] gave a melting point of 199.8 °C. The IC50 in data set [1] (setting [2]) is 0.00813 µM. Further, the Emax in data set [1] was 102%. In addition, the EC50 on hOGA (setting [3]) was 0.138 µM. Also, on hOGA, the Emax worked out at 73%.
`CC(=O)n1nc(C)c(Nc2nccc3c2ncn3CC(=O)N(C)C)c1C` [Compound 37] gave a melting point of 175.4 °C. Besides, the IC50 in data set [1] (setting [2]) was over 10 µM. Besides, in data set [1], the Emax is 2%. The molecule also returned an EC50 at hOGA (setting [3]) of over 1 µM. For the same molecule, the Emax at hOGA was determined as 8%.
Turning to `Cc1nn(-c2cccc(C#N)c2)c(C)c1Nc1nccc2c1ncn2CC(=O)N(C)C` [Compound 33], the melting point is 239.9 °C. The IC50 in data set [1] (setting [2]) is 0.0204 µM. Moreover, in data set [1], the Emax was found to be 97%. At hOGA (setting [3]), a half-maximal response (EC50) required 0.479 µM. On hOGA, the Emax worked out at 63%.
On to `CCN(C)C(=O)Cn1cnc2c(Nc3c(C)cc(C(F)(F)F)cc3C)nccc21` [Compound 63, 2-[4-[2,6-Dimethyl-4-(trifluoromethyl)anilino]imidazo[4,5-c]pyridin-1-yl]-N-ethyl-N-methyl-acetamide], for which the melting point is 186.5 °C. Further, the IC50 in data set [1] (setting [2]) is 0.00933 µM. Moreover, the Emax in data set [1] was 98%. This molecule also gave an EC50 on hOGA (setting [3]) of 0.0891 µM. Also, at hOGA, the Emax is 100%.
The molecule `Cc1cc(C(F)(F)F)cc(F)c1Nc1nccc2c1ncn2CC(=O)N(C)C` [Compound 25] showed a melting point of 226.6 °C. The IC50 in data set [1] (setting [2]) is 0.135 µM. Also, the Emax in data set [1] amounted to 96%. This molecule also displayed an EC50 on hOGA (setting [3]) of over 1 µM. The Emax at hOGA was 29%.
For the molecule `Cc1cc2c(cnn2C)c(C)c1Nc1nccc2c1ncn2CC(=O)N(C)C` [Compound 13], the melting point was 265.1 °C. Further, in data set [1] (setting [2]), the IC50 was 0.0138 µM. Moreover, in data set [1], the Emax came to 98%. Besides, on hOGA (setting [3]), the 50% effective concentration (EC50) is 0.0692 µM. For the same molecule, at hOGA, the maximum response (Emax) amounted to 113%.
The molecule `Cc1ccnc(C(C)C)c1Nc1nccc2c1cnn2CC(=O)N(C)C` [Compound 65, 2-[4-[(2-Isopropyl-4-methyl-3-pyridyl)amino]pyrazolo[4,3-c]pyridin-1-yl]-N,N-dimethyl-acetamide] registered a melting point of 211.5 °C. In addition, the IC50 in data set [1] (setting [2]) is 0.174 µM. Besides, in data set [1], the Emax is 97%. In addition, on hOGA (setting [3]), the EC50 was over 1 µM. Also, the Emax at hOGA worked out at 24%.
Taken in the same sequence, the figures for `CCCCn1cnc2c(Nc3c(C)cc(F)cc3C)nccc21` [Compound 57] were 184.45 °C, 0.0537 µM, 99%, 0.513 µM and 62%.
On to `CCCCn1ncc2c(Nc3c(Cl)cccc3Cl)nccc21` [Compound 66, 1-Butyl-N-(2,6-dichlorophenyl)pyrazolo[4,3-c]pyridin-4-amine], for which the melting point came to 144.7 °C. The IC50 in data set [1] (setting [2]) was 0.0851 µM. The Emax in data set [1] was found to be 104%. On hOGA (setting [3]), this molecule showed an EC50 of over 1 µM. Further, at hOGA, the maximal effect (Emax) came out at 45%.
With `Cc1cc(C(F)(F)F)cc(C)c1Nc1ncc(F)c2c1ncn2CC(=O)N(C)C` [Compound 35], the melting point was found to be 236.7 °C. In addition, the IC50 in data set [1] (setting [2]) is 0.178 µM. In addition, the Emax in data set [1] was 96%. At hOGA (setting [3]), this molecule registered an EC50 of over 1 µM. Moreover, at hOGA, the Emax was determined as 25%.
For `Cc1cc(C(F)(F)F)cc(C)c1Nc1nccc2c1cnn2CC(=O)N(C)C` [Compound 64, 2-[4-[2,6-Dimethyl-4-(trifluoromethyl)anilino]pyrazolo[4,3-c]pyridin-1-yl]-N,N-dimethyl-acetamide], the melting point was 196.5 °C. Also, the IC50 in data set [1] (setting [2]) was 0.0427 µM. Moreover, the Emax in data set [1] was 101%. The molecule also showed an EC50 at hOGA (setting [3]) of 0.234 µM. Further, the Emax at hOGA was determined as 78%.
In the case of `Cc1cc(C(F)(F)F)cc(C)c1Nc1ncc(C)c2c1cnn2CC(=O)N(C)C` [Compound 81, 2-(4-((2,6-Dimethyl-4-(trifluoromethyl)phenyl)amino)-7-methyl-1H-pyrazolo[4,3-c]pyridin-1-yl)-N,N-dimethylacetamide], the melting point is 211.6 °C. Further, the IC50 in data set [1] (setting [2]) is 0.0692 µM. Further, the Emax in data set [1] worked out at 100%. The midpoint of the response at hOGA (setting [3]), the EC50, lay at 0.537 µM. The midpoint of the response on hOGA (pEC50, second table, averaged values over several runs, obtained after recalibration of the equipment), the EC50, lay at 0.151 µM. Besides, the Emax at hOGA stood at 66%.
Consider `Cc1cc(Cl)cc(C)c1Nc1nccc2c1ncn2CC(=O)N(C)C` [Compound 11], for which the melting point was 209.8 °C. Moreover, the IC50 in data set [1] (setting [2]) is 0.01 µM. Also, the Emax in data set [1] stood at 99%. A half-maximal response at hOGA (setting [3]) (EC50) required 0.209 µM. The Emax at hOGA came out at 62%.
Regarding `CN(C)C(=O)Cn1cnc2c(Nc3c(Cl)cc(OC(F)(F)F)cc3Cl)nccc21` [Compound 7], the melting point worked out at 201.5 °C. The IC50 in data set [1] (setting [2]) is 0.00692 µM. Moreover, in data set [1], the Emax stood at 102%. On hOGA (setting [3]), this molecule gave an EC50 of 0.372 µM. Moreover, the Emax on hOGA came out at 66%.
The molecule `Cc1nn(-c2cccc(F)c2)c(C)c1Nc1nccc2c1ncn2CC(=O)N(C)C` [Compound 34] came in with a melting point of 181.5 °C. The IC50 in data set [1] (setting [2]) was 0.0363 µM. The Emax in data set [1] was determined as 99%. The molecule also had an EC50 on hOGA (setting [3]) of 0.562 µM. Further, on hOGA, the Emax was 54%.
Take `Cc1cc(-c2cnn(C)c2)cc(C(C)C)c1Nc1nccc2c1ncn2CC(=O)N(C)C` [Compound 22]: the melting point turned out to be 234.4 °C. For the same molecule, the IC50 in data set [1] (setting [2]) was 0.0417 µM. In data set [1], the Emax was found to be 98%. At hOGA (setting [3]), this molecule had a 50% effective concentration (EC50) of over 1 µM. At hOGA, the Emax is 31%.
Molecule `Cc1cc(OC(F)(F)F)cc(Cl)c1Nc1nccc2c1ncn2CC(=O)N(C)C` [Compound 16] came in with a melting point of 182.81 °C. Moreover, the IC50 in data set [1] (setting [2]) was 0.0135 µM. Moreover, the Emax in data set [1] stood at 101%. Besides, the EC50 on hOGA (setting [3]) was 0.316 µM. Also, at hOGA, the Emax was determined as 66%.
The molecule `Cc1cc(C(F)(F)F)cc(C)c1Nc1nccc2c1ncn2CC(=O)N(C)CC(F)(F)F` [Compound 77] displayed a melting point of 228.3 °C. Also, the “Enzymatic hOGA; pIC50” value in data set [1] (Table 5, full length OGA 2 nM, FM-GlcNAc 100 uM, 6 h at room temperature) came to 7.23. The Emax in data set [1] stood at 103%. In addition, the Emax on hOGA turned out to be 67%. For the same molecule, the “Cellular hOGA; pEC50” value on hOGA (Table 5, HEK293 P301L Tau cells, 6 hours incubation, O-GlcNAcylation readout) stood at 6.37.
As for `Cc1cc(C(F)(F)F)nc(C)c1Nc1nccc2c1ncn2CC(=O)N(C)C` [Compound 23], the melting point stood at 233.3 °C. Besides, the IC50 in data set [1] (setting [2]) was 0.0457 µM. In data set [1], the Emax was 99%. On hOGA (setting [3]), this molecule gave an EC50 of 1.02 µM. Further, the maximal effect (Emax) at hOGA stood at 51%.
In the case of `Cc1ccc(C(F)(F)F)c(C)c1Nc1nccc2c1ncn2CC(=O)N(C)C` [Compound 18], the melting point came out at 250 °C. In data set [1] (setting [2]), the IC50 was 0.0162 µM. For the same molecule, the Emax in data set [1] stood at 99%. On hOGA (setting [3]), this molecule showed an EC50 of 0.631 µM. Also, the Emax at hOGA turned out to be 56%.
`Cc1cc(C(F)(F)F)cc(C)c1Nc1ncc(C)c2c1ncn2CC(=O)N(C)C` [Compound 6, 2-(4-((2,6-Dimethyl-4-(trifluoromethyl)phenyl)amino)-7-methyl-1H-imidazo[4,5-c]pyridin-1-yl)-N,N-dimethylacetamide]: the melting point is 238.3 °C. In addition, in data set [1] (setting [2]), the IC50 is 0.0191 µM. Besides, the Emax in data set [1] was found to be 99%. Besides, on hOGA (setting [3]), the EC50 was 0.288 µM. The Emax at hOGA amounted to 60%.
